Results published in US6599941B1, “Insecticide and insect repellant compositions” (priority 1993, dated 2003).

Assay: Tolerability of mono-ethanolamine on humans
Assay type: in vivo
Settings: when used in higher concentrations

SMILES: NCCO [mono-ethanolamine, 2-aminoethanol]
- irritation of eyes and mucus membranes: irritating to the eyes and mucus membranes
